Source: US20090175911A1, “Bacterial Production of Carotenoids” (ROYAL HOLLOWAY AND BEDFORD NEW COLLEGE, priority 2005, published 2009)
≈ marks a conversion by molar mass, not a printed value. Where two headings read alike, the source gives them in different places.

Assays:
PY79 [1] = experiment: MIC determination; type: cell-based; conditions: Bacillus subtilis
HU36 [2] = experiment: MIC determination; type: cell-based; conditions: Bacillus
PY79 [3] = experiment: Disc diffusion antibiogram; conditions: 6 mm discs, amount per disc in brackets after each antibiotic, 18 h at 37° C., three experiments
HU36 [4] = experiment: Disc diffusion antibiogram; type: cell-based, Bacillus
Natto = experiment: Disc diffusion antibiogram; conditions: 6 mm discs, amount per disc in brackets after each antibiotic, 18 h at 37° C., three experiments
[5] = Gastric stability of carotenoids in simulated gastric fluid (SGF); type: in vitro ADME; conditions: SGF (1 mg/ml pepsin, 0.9% NaCl, pH 2), 37° C., by 20 minutes, versus 0 minutes
[6] = strains with MICs equal or higher are considered resistant, cited from earlier work

Row | Compound | MIC (PY79 [1]) [µg/mL] | MIC (HU36 [2]) [µg/mL] | Zone of inhibition (mm) (PY79 [3]) | Zone of inhibition (mm) (Natto) | other results
1 | CC(C)(O/N=C(\C(=O)N[C@@H]1C(=O)N2C(C(=O)[O-])=C(C[n+]3ccccc3)CS[C@H]12)c1csc(N)n1)C(=O)O [Ceftazidime] | 0.025 (≈ 0.0457 µM) | 0.05 (≈ 0.0915 µM) | – | – | –
2 | O=C(O)c1cn(C2CC2)c2cc(N3CCNCC3)c(F)cc2c1=O [Ciporfloxacin] | – | – | 32.8 ± 1 | 33.3 ± 1.5 | Zone of inhibition (mm) (HU36 [4]): 29.7 ± 0.6 mm
3 | CCC[C@@H]1C[C@@H](C(=O)N[C@@H]([C@H]2O[C@H](SC)[C@H](O)[C@@H](O)[C@H]2O)[C@H](C)Cl)N(C)C1 [Clindamycin] | 0.05 (≈ 0.118 µM) | 8 (≈ 18.8 µM) | – | – | –
4 | CCn1cc(C(=O)O)c(=O)c2ccc(C)nc21 [Naladixic acid] | – | – | 20.7 ± 1.2 | 23 ± 1.7 | Zone of inhibition (mm) (HU36 [4]; HU36, 6 mm discs, amount per disc in brackets after each antibiotic, 18 h at 37° C., three experiments): 22.8 ± 1.4 mm
5 | CC1=C(/C=C/C(C)=C/C=C/C(C)=C/C=C/C=C(C)/C=C/C=C(C)/C=C/C2=C(C)CCCC2(C)C)C(C)(C)CCC1 [carotenoid standard, beta-carotene] | – | – | – | – | carotenoid remaining [5]: less than 1%
6 | Gentamycin | – | – | – | – | Breakpoints EFSA ([6]; (EFSA, 2005)): 4 mg/L; Breakpoints SCAN ([6]; (SCAN, 2002)): 8 mg/L
